Results reported in PMC12503906, “Novel Pyrazolo [1,5‐a]−1,3,5‐Triazine Derivatives as CDK7 Inhibitors: Synthesis and Biological Insights in Pancreatic Ductal Adenocarcinoma Models” (Chemmedchem, 2025).
Like-named read-outs stand apart in the source and are kept apart here.

Experiments:
[1] = tested on: PATU‐T; experiment: SRB chemosensitivity assay, PATU‐T cells; assay type: cell-based; settings: read-out: IC50 PATU‐T
Description: (§1) Three lines of immortalized PDAC cells were selected as representative phenotypes: mesenchymal (PATU‐T), quasimesenchymal (PANC‐1), and an epithelial clone of SUIT 2 cells (SUIT 2.28). Cells were cultured in noncoated T‐75 and T‐25 flasks under adherent conditions, using 1× DMEM (Gibco, 41,966,029) for PATU‐T and RPMI (Gibco, 21,875,034) for SUIT 2.28 and PANC‐1, both supplemented with 10% NBCS and 1% P/S. Additional employed models were the PDAC3 cells, a primary cell culture, the PSCs, which were immortalized healthy pancreatic cells, and the PATU‐T‐GR, which was a gemcitabine resistant model of PATU‐T. PDAC3 and PSCs were cultivated using complete RPMI medium, while PATU‐T‐GR required complete DMEM medium. For seeding, cells were detached with Trypsin‐EDTA (0.05%) (GibcoTM, 25,300–096) and were consequently counted using the Automated Cell Counter (Luna‐II, Westburg). Cells were then plated on 96‐ or 6‐well plates depending on the planned experiment.
(§2) The Sulforhodamine B (SRB) chemosensitivity assay was used to measure cytotoxicity and cell proliferation post drug treatment. At day 0, 3–6 × 10^3 cells were seeded in a 96‐well plate, depending on the cell line. At day 1, cells were attached and ready to be treated. For the calculation of the IC50, drug dilutions for the compounds 1b, 1c, 1d, 1e, 1g, 1hr, 1i, 1j, and LDC4297 (MedChemExpress, HY‐12,653) were prepared in dilution trays and eight different concentrations were included. These were added in triplicates to the cells, which were then incubated for […] at 37 °C in 5% CO2. During day 1, the control plate was fixed with 50% Trichloroacetic acid (TCA), as intended to be the baseline plate used for the normalization of the data. 72 h post‐treatment, the cells were fixed with TCA, and placed at 4 °C for about 2 h. The plates were then washed with distillated water and left to dry under the hood with ventilation. Subsequently, plates were stained with 0.4% SRB for 15 min and washed with 1% acetic acid to remove excess stain. Once dried again, the protein‐bound SRB was dissolved in 10 mM TRIS, and the plates were placed on a shaker for 10 min per plate. Lastly, the absorbance was measured at 492 nm with a spectrophotometer (Synergy HT, BioTek). The absorbance data obtained were normalized to the day 1 control, and the percentage of cell growth in relation to the control was calculated using the following formula. (1) %Cell growth=Mean OD treatment−Mean OD day0/Mean OD control−Mean OD day0×100
(§3) The percentage of proliferation and their respective standard deviations were used to perform statistical analysis in GraphPad Prism software v 10 (GraphPad Software, San Diego, CA). Data were normalized to the day 0 control and to their own untreated 72 h control. These were transformed into logarithmic data, and log(inhibitor) versus response analysis was performed for obtaining the IC50 values per cell lines. Each experiment was conducted in triplicates.

[2] = tested on: PANC‐1; experiment: SRB chemosensitivity assay, PANC‐1 cells; assay type: cell-based; settings: Homo sapiens, read-out: IC50 PANC‐1
Description: as §1, §2, §3

[3] = tested on: SUIT 2.28; experiment: SRB chemosensitivity assay, SUIT 2.28 cells; assay type: cell-based; settings: read-out: IC50 SUIT 2.28
Description: as §1, §2, §3

[4] = tested on: PDAC3; experiment: SRB chemosensitivity assay, primary PDAC3 cells; assay type: cell-based; settings: PDAC-3, SRB, primary cell line, average ± SEM, triplicate; read-out: IC50 PDAC3
Description: as §1, §2, §3

[5] = tested on: PATU‐T GR; experiment: SRB chemosensitivity assay, gemcitabine resistant PATU‐T GR cells; assay type: cell-based; settings: SRB, gemcitabine resistant PATU‐T GR, average ± SEM, triplicate; read-out: IC50 PATU‐GR
Description: as §1, §2
The percentage of proliferation and their respective standard deviations were used to perform statistical analysis in GraphPad Prism software v 10 (GraphPad Software, San Diego, CA). Data were normalized to the day 0 control and to their own untreated 72 h control. […]

[6] = tested on: PSC; experiment: SRB chemosensitivity assay, pancreatic stellate cells (PSC); assay type: cell-based; settings: Fibroblast; SRB, nontumorous immortalized pancreatic fibroblasts, average ± SEM, triplicate; read-out: IC50 PSC
Description: as §1
as §2, with “The plates were then washed with distillated water and left to dry under the hood with ventilation. Subsequently, plates were stained with 0.4% SRB for 15 min and washed with 1% acetic acid to remove excess stain. Once dried again, the protein‐bound SRB was dissolved in 10 mM TRIS, and the plates were placed on a shaker for 10 min per plate.” left out, “(1) %Cell growth=Mean OD treatment−Mean OD day0/Mean OD control−Mean OD day0×100” left out

[7] = tested on: PDAC cell lines; experiment: SRB chemosensitivity assay, ranges over several PDAC cell lines; assay type: cell-based; settings: range across the different cell lines
Description: as §1, with “Cells were then plated on 96‐ or 6‐well plates depending on the planned experiment.” left out
The Sulforhodamine B (SRB) chemosensitivity assay was used to measure cytotoxicity and cell proliferation post drug treatment. […] At day 1, cells were attached and ready to be treated. […] Lastly, the absorbance was measured at 492 nm with a spectrophotometer (Synergy HT, BioTek). The absorbance data obtained were normalized to the day 1 control, and the percentage of cell growth in relation to the control was calculated using the following formula. […]

[8] = tested on: CDK7; settings: selective inhibition of CDK7, quoted in introduction; cited from earlier work
[9] = target: CDK7 (Homo sapiens, UniProt P50613); experiment: In vitro CDK7 enzyme inhibition assay (ADP‐Glo); assay type: biochemical; design: purchased Promega Corporation VA7402; settings: ADP‐Glo assay, mean of triplicate experiments; read-out: CDK7 inhibition activity IC50
Description: The CDK7 enzyme inhibition assay was conducted using the ADP‐Glo Kinase Assay (VA7402, Promega Corporation, Madison, WI, USA) according to the manufacturer's instructions. In this assay, CDK7 catalyzes the conversion of ATP to ADP. The reaction was terminated by adding the ADP‐Glo reagent, which depletes residual ATP. Subsequently, the kinase detection reagent was introduced to convert ADP back into ATP, which was then measured via a luciferase reaction, producing luminescence. The assay was carried out at room temperature, using DMSO as the solvent for the tested compounds. Each compound was tested at eight different concentrations. […] Luminescence was recorded using a BioTek plate reader (BioTek Instruments Inc.), as previously described.^[ [39] ^] The percentage of enzyme inhibition was determined for each compound at different concentrations, and mean IC50 values of triplicate experiments were calculated using GraphPad Prism.

[10] = target: T1, phosphorylated CDK7 (p‐CDK7) (Homo sapiens, UniProt P50613); experiment: Phospho‐CDK7 (Thr170) cell‐based ELISA, PDAC3; design: endogenous in cells; host or cells: PDAC3 primary cells; settings: PDAC3, 4 × IC50, ELISA
Description: (§4) To detect CDK7 and phospho‐CDK7 levels at Thr170 residue after treatment, an enzyme‐linked immunosorbent assay (Biomatik, Phospho‐CDK7 (Thr170) Colorimetric Cell‐Based ELISA Kit, Cat# EKA51274) was performed according to the manufacturer's protocols. […] The absorbance was read at 450 nm using a microplate reader.

[11] = target: T1, phosphorylated CDK7 (p‐CDK7); experiment: Phospho‐CDK7 (Thr170) cell‐based ELISA, SUIT 2.28; design: two PDAC preclinical models (SUIT 2.28 and PDAC3); endogenous in cells; host or cells: SUIT 2.28; settings: SUIT 2.28, 4 × IC50, ELISA
Description: as §4

[12] = tested on: PATU‐T; experiment: Wound healing assay, PATU‐T; assay type: cell-based; settings: 1 × IC50 and 4 × IC50, 4 to 24 h
Description: The wound healing assay was used to test the migratory ability of the selected cells post‐treatment. Cells (5 × 10^4 /well) were seeded on 96‐well. After 24 h, cells reached the optimal 100% confluency, and an artificial wound was created with a 96‐well Pintool Scratcher. The cells were immediately washed with complete medium, in order to remove cell debris after the scratch, and images of the wells were captured at time 0 h, right before the addition of the treatment. Each drug (1b and 1g) was previously diluted in the respective medium at two different concentrations: 1 × IC50 and 4 × IC50 (according to the cell specific IC50 value) and were then added to the cells. Images were then taken at timepoints 4, 8, 20, and 24 h using the Leica microscope with a JAI TMC‐137 camera to assess wound closure. The images were analyzed using the Universal Grab 6.3 software (DCILabs), and the obtained data were used to determine the percentage of migration of the cells, using the following formula. (2) % Migration=Mean width of the wound atT=0−Mean width of the wound atT=X/Mean width of the wound atT=0×100

[13] = SRB, 72 h of treatment, average ± SEM, triplicate
[14] = PANC-1, SRB, 72 h of treatment, average ± SEM, triplicate

T1 sequence (P50613 2-346 limits assumed): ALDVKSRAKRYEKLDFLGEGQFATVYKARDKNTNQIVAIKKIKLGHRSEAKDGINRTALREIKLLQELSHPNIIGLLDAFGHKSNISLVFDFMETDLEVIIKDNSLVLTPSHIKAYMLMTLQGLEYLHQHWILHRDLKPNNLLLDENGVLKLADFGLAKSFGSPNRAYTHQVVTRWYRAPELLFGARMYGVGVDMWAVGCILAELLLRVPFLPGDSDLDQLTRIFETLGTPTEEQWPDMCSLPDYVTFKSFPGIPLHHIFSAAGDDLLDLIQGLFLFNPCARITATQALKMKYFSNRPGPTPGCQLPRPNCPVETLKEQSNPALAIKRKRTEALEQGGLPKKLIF
T1 sequence (P51946 whole entry partner): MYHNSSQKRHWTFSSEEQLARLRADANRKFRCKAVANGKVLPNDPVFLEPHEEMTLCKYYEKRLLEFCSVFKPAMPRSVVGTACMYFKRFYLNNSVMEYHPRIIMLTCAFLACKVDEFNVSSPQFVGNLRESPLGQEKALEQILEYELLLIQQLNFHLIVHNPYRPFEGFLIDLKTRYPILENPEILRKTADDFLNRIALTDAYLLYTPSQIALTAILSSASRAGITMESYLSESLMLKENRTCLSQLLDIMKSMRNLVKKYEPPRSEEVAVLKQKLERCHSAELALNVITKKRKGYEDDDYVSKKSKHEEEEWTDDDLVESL
T1 sequence (P51948 whole entry partner): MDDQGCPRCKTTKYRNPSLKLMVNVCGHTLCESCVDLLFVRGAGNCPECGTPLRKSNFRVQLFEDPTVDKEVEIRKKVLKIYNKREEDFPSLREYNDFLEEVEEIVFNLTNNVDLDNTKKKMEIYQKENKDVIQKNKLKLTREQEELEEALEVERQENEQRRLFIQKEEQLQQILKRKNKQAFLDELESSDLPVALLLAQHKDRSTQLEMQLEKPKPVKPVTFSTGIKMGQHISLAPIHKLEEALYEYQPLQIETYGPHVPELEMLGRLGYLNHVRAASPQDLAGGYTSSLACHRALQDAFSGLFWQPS
Chain of CDK7 (Homo sapiens, UniProt P50613) (P50613 whole entry): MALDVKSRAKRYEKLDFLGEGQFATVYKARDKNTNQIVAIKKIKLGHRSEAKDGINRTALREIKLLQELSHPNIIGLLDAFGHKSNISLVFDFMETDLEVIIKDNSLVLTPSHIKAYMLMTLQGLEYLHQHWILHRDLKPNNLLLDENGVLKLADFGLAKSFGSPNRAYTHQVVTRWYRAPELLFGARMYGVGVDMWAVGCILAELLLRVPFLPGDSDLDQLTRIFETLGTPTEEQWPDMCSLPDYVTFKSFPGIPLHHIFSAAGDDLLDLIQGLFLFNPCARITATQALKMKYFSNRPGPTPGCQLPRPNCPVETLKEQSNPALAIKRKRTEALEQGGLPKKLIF
Chain of CDK7 (Homo sapiens, UniProt P50613) (P51946 whole entry partner): as the sequence (P51946 whole entry partner) above
Chain of CDK7 (Homo sapiens, UniProt P50613) (P51948 whole entry partner): as the sequence (P51948 whole entry partner) above

| Structure (SMILES) | IC50 ([1]; 72 h) [µM] | IC50 ([2]; PANC-1, 72 h) [µM] | IC50 ([3]; 72 h) [µM] | IC50 [1, 13] [µM] | IC50 [2, 14] [µM] | IC50 [3, 13] [µM] | also measured |
| --- | --- | --- | --- | --- | --- | --- | --- |
| Cn1cc(-c2cc3ncnc(N)n3n2)c2cc(Cl)ccc21 [Compound 1h, 7‐(5‐Chloro‐1‐methyl‐1H‐indol‐3‐yl)pyrazolo[1,5‐a][1,3,5]triazin‐4‐amine] | 2 ± 0.3 | 3.1 ± 0.7 | 1.6 ± 0.3 |  |  |  |  |
| COc1ccc2c(c1)c(-c1cc3ncnc(N)n3n1)cn2C [Compound 1j, 7‐(5‐Methoxy‐1‐methyl‐1H‐indol‐3‐yl)pyrazolo[1,5‐a][1,3,5]triazin‐4‐amine] | 4.7 ± 0.8 | 2.4 ± 0.5 | 0.5 ± 0.1 |  |  |  |  |
| CC(C)c1cnn2c(NCc3ccccc3-n3cccn3)nc(OC3CCCNC3)nc12 (stereo not shown) [LDC4297, reference compound] |  |  |  | 0.03 ± 0.01 | 0.02 ± 0.01 | 0.03 ± 0.01 | IC50 [4]: 0.1 ± 0.02 µM; IC50 [5]: 0.45 ± 0.09 µM; IC50 [6]: 0.11 ± 0.02 µM; IC50 [7]: 0.02 to 0.4 µM; IC50 [8]: < 0.005 µM; IC50 [9]: 0.0075 µM; p‐CDK7 expression vs untreated [10]: significant decrease in p‐CDK7 levels; p‐CDK7 expression vs untreated [11]: significant decrease in p‐CDK7 levels |
| Cn1cc(-c2cc3ncnc(N)n3n2)c2cc(F)ccc21 [Compound 1i, 7‐(5‐Fluoro‐1‐methyl‐1H‐indol‐3‐yl)pyrazolo[1,5‐a][1,3,5]triazin‐4‐amine] | 5.5 ± 1.1 | 2.2 ± 0.4 | 0.5 ± 0.1 |  |  |  |  |
| Nc1ncnc2cc(-c3c[nH]c4ccc(Cl)cc34)nn12 [Compound 1c, 7‐(5‐Chloro‐1H‐indol‐3‐yl)pyrazolo[1,5‐a][1,3,5]triazin‐4‐amine] |  |  |  | 1.9 ± 0.6 | 8.7 ± 1.5 | 0.4 ± 0.1 |  |
| CC(C)c1ccccc1CNc1nc(OC2CCN(C)CC2)nc2c(C(C)C)cnn12 [LDC3140] |  |  |  |  |  |  | IC50 [8]: < 0.005 µM |
| Nc1ncnc2cc(-c3c[nH]c4ccc(F)cc34)nn12 [Compound 1d, 7‐(5‐Fluoro‐1H‐indol‐3‐yl)pyrazolo[1,5‐a][1,3,5]triazin‐4‐amine] |  |  |  | 3.5 ± 0.7 | 9.6 ± 0.8 | 0.6 ± 0.1 |  |
| COc1ccc2[nH]cc(-c3cc4ncnc(N)n4n3)c2c1 [Compound 1e, 7‐(5‐Methoxy‐1H‐indol‐3‐yl)pyrazolo[1,5‐a][1,3,5]triazin‐4‐amine] |  |  |  | 4.7 ± 0.9 | 8.8 ± 1.2 | 0.5 ± 0.1 | inhibition of cell migration [12]: greatest inhibitory effect |
